≈ marks a conversion by molar mass, not a printed value. Where “and” joins values, the source holds several entries; their conditions need not be identical. Identical values can stand only once.
What was measured:
[1] = cytotoxicity in uninfected PHA-stimulated human PBM cells; type: cell-based; details: uninfected PBMC, 6 days, read-out: Cytotoxicity in PBMC IC50
Protocol: Human peripheral blood mononuclear cells (PBMC) from healthy HIV-1 seronegative and hepatitis B virus seroneqative donors were isolated by Ficoll-Hypague discontinuous gradient centrifugation at 1,000×g for 30 minutes, washed twice in phosphate buffered saline (pH 7.2; PBS), and pelleted at 300×g for 10 minutes. Before infection, the cells were stimulated by phytohemagglutinin (PHA) at a concentration of 16.7 ug/ml for three days in RPMI 1640 medium supplemented with 15% heat-inactivated fetal calf serum, 1.5 mM L-glutamine, penicillin (100 U/ml), streptomycin (100 ug/ml) and 4 mM sodium bicarbonate buffer.
The test compounds were evaluated for their potential toxic effects on uninfected PHA-stimulated human PBM cells. The cells were cultured with and without test compound for 6 days at which time aliquots were counted for cell viability.

A549: Lung carcinoma = assay: cytotoxic activity against cultured tumor cells, A549; type: cell-based; details: Homo sapiens, 72 h; A549, 3 days, MTT
[2] = cytotoxicity in ATH8 cells (method of Mitsuya and Broder); type: cell-based; details: human
From the text: The method of Mitsuya and Broder (AIDS: Modern Concepts and Therapeutic Challenges; Broder, S. ED.; Marcel Dekker, Inc.; New York, 1987; Chapter 18) was used to determine the in vitro anti-HIV-1 and anti-HIV-2 activity in ATH8 cells of some compounds of the invention. […]

[3] = test system: HCT8: Adenocarcinoma, ileocecal; assay: cytotoxic activity against cultured tumor cells, HCT-8; type: cell-based; details: Homo sapiens, 72 h; HCT-8, 3 days, MTT
[4] = MTT cytotoxicity assay in MRC5 cells; type: cell-based; details: human
Protocol: (§1) Human diploid embryonic lung (MRC5) cells were grown in 35 mm wells of 6-well tissue culture plates. Subconfluent cell monolayers were rinsed with phosphate buffered saline (PBS) and were exposed to 0.5 ml/well of HCMV (strain AD169) suspension for 1.5 hours at 37° C. The virus suspension was diluted in MEM+2% fetal bovine serum (FBS) to yield a multiplicity of infection (MOI) of approximately 0.1 plaque forming units (PFU)/cell. Following the virus adsorption period, the inocula were removed and infected cell layers were rinsed with PBS. Aliquots (2.0 ml) of each test drug concentration (dissolved in MEM supplemented with 2% FBS) were dispensed into triplicate cell cultures: two virus infected cultures and one uninfected cytotoxicity control culture (exposed to medium without virus for 1.5 hours). Untreated virus infected control cultures and untreated, uninfected cell control cultures were fed with medium alone.
(§2) All cell culture fluids were replaced with fresh drug and medium 48 hours postinfection (p.i.).
Drug cytotoxicity was determined quantitatively by a method based on the reduction of the tetrazolium salt, 3-(4,5-dimethyl-thiazol-2-yl)-2,5-diphenyl tetrazolium bromide (MTT) by mitochondrial enzymes of viable host cells to MTT formazan (T. Mosmann, 1983). Drug cytotoxicity controls and cell controls were treated with MTT (dissolved in culture medium) followed by 20% SDS (in 0.02 N HCl) to dissolve the crystals of MTT formazan. The blue color of the MTT formazan was measured spectrophotometrically at 570 nm. Drug cytotoxicity was determined by comparing the absorbance (O.D.) of each drug cytotoxicity control with the mean O.D. of the cell control cultures and expressed as percent of control.

[5] = test system: Human Immunodeficiency Virus (HIV-2); assay: anti-HIV-2 protection of ATH8 cells (method of Mitsuya and Broder); type: cell-based; details: ATH-8, HIV-2, ATH8 cells, read-out: Protective Effect
From the text: (§3) The method of Mitsuya and Broder (AIDS: Modern Concepts and Therapeutic Challenges; Broder, S. ED.; Marcel Dekker, Inc.; New York, 1987; Chapter 18) was used to determine the in vitro anti-HIV-1 and anti-HIV-2 activity in ATH8 cells of some compounds of the invention. The results of the test are expressed as the percentage of ATH8 cells that were protected from the cytopathogenic effects of HIV at various concentrations of the compound of the invention.

[6] = test system: Human Cytomegalovirus (HCMV); assay: HCMV virus yield reduction assay in MRC5 cells; type: cell-based, Human cytomegalovirus (strain AD169)
Protocol: as §1, §2
On Day 6 p.i., the cell layers were examined microscopically for cytopathogenic effect (CPE) and drug cytotoxicity. The test and virus control cultures were then harvested by subjecting the cell layers to one cycle of freeze-thawing.
The harvested test and virus control samples were thawed and the infectious virus yield was determined by plaque assay in MRC5 cells grown in 12-well cluster plates. Inhibition of HCMV replication by each test compound was determined by comparing the progeny virus yields in the drug-treated cultures with the progeny virus yield in the untreated, virus infected control cultures.

[7] = test system: Human Immunodeficiency Virus (HIV-1); assay: anti-HIV-1 protection of ATH8 cells (method of Mitsuya and Broder); type: cell-based; details: Human immunodeficiency virus 1, ATH-8, HIV-1, ATH8 cells, read-out: Protective Effect
From the text: as §3

[8] = test system: Human Immunodificiency Virus (HIV-1); assay: HIV-1 antigen inhibition in H9 cells; type: cell-based, HIV-1 (HTLV-IIIB); details: Human immunodeficiency virus 1, HIV-1, H9 cells; for IC50: HIV antigen levels
Protocol: Uninfected H9 cells at 4×10^5 viable cells/ml were infected with approximately 100 viral infectious units (ifu) for 2 hrs at 37° C. The viral infectious dose (ifu) was determined by the tissue culture infectious dose (TCID50) method for each stock of HIV-1 (HTLV-IIIB) and HIV-2. Cells were washed three times to remove residual virus, then resuspended in RPMI-1640 growth medium containing test compound at various concentrations, then transferred to 24 well tissue culture plates and grown at 5% CO2 at 37° C. Infected cells in media containing no drug were run simultaneously as a control. Aliquots of culture supernatants were removed at 4, 6 and 10 days and monitored for HIV antigen levels by the Abbott HIV 1 antigen enzyme immunoassay (HIVAG-1). Cell viability was also determined at these time points and cells were refed with media containing test compound (except for control wells). Anti-HIV activity is reported as the concentration of compound causing a 50% inhibition (IC50) in HIV antigen levels versus infected cells without test compound.

[9] = test system: Herpes simplex type 2 (HSV-2) strain MS; assay: CPE-inhibition assay, HSV-2 strain MS in Vero cells; details: for EC50: Human alphaherpesvirus 2, Vero, read-out: ID50 (minimum drug concentration that inhibited the CPE by 50%), HSV-2 (MS), Vero
[10] = Human betaherpesvirus 5, 144 h, 1.0 ug/ml
[11] = Human betaherpesvirus 5, 144 h, 3.2 ug/ml
[12] = Human betaherpesvirus 5, 144 h, 10 ug/ml
[13] = Human betaherpesvirus 5, 144 h, 32 ug/ml

| SMILES | CC50 at 144 h [1] [µM] | IC50 (A549: Lung carcinoma) [µg/mL] | cytotoxicity at 1 µM ([2]; HIV-1 experiment) [%] | cytotoxicity at 10 µM ([2]; HIV-1 experiment) [%] | cytotoxicity at 1 µM ([2]; HIV-2 experiment) [%] | cytotoxicity at 10 µM ([2]; HIV-2 experiment) [%] | IC50 [3] [µg/mL] | viability ([4]; 3.2 ug/ml) [%] | viability ([4]; 10 ug/ml) [%] | viability ([4]; 32 ug/ml) [%] | inhibition at 1 µM [5] [%] | inhibition at 10 µM [5] [%] | HCMV yield ([6]; 1.0 ug/ml) [log10 PFU/ml] | HCMV yield ([6]; 3.2 ug/ml) [log10 PFU/ml] | HCMV yield ([6]; 10 ug/ml) [log10 PFU/ml] | HCMV yield ([6]; 32 ug/ml) [log10 PFU/ml] | log reduction at 1 µg/mL [6, 10] | log reduction at 3.2 µg/mL [6, 11] | log reduction at 10 µg/mL [6, 12] | log reduction at 32 µg/mL [6, 13] | also measured |
| --- | --- | --- | --- | --- | --- | --- | --- | --- | --- | --- | --- | --- | --- | --- | --- | --- | --- | --- | --- | --- | --- |
| Nc1nc2c(ncn2C2CC(CO)C2CO)c(=O)[nH]1 (stereo not drawn) [Example 1I, 9-(2',3'-Bis(hydroxymethyl)cyclobutyl)guanine] | 38.8 | 94.6 (≈ 357 µM) | 0 | 0 | 11 | 11 | > 100 | 100 | 100 | 100 | 24 | 65 | 3.12 | 2.43 | 1.63 | < 0.6 | 1.15 | 1.84 | 2.64 | > 3.7 | viability ([4]; 1.0 ug/ml): 100%; inhibition at 1 µM [7]: 51%; inhibition at 10 µM [7]: 90%; inhibition at 0.312 µM ([8]; 0.312 uM): 0%; inhibition at 0.625 µM [8]: 19%; inhibition at 1.25 µM ([8]; 1.25 uM): 63%; inhibition at 2.5 µM [8]: 75%; inhibition at 10 µM [8]: 88%; IC50 [8]: 1.1 µM; TI (Therapeutic Index, MTC/ID50) ([9]; HSV-2 (MS), Vero): 50 and 30; EC50 [9]: 6.4 µg/mL (≈ 24.1 µM) |
| Nc1ncnc2c1ncn2C1CC(CO)C1CO (stereo not drawn) [Example 4C, 9-(2',3'-Bis(hydroxymethyl)cyclobutyl)adenine] | 23 | 49.1 (≈ 197 µM) | 12 | 33 | 9 | 15 | 71.4 (≈ 286 µM) | 95 | 90 | 67 | 33 | 70 | 2.6 | < 0.6 | < 0.6 | < 0.6 | 2.1 | > 4.1 | > 4.1 | > 4.1 | cytotoxicity at 100 µM ([2]; HIV-1 experiment, 100 uM): 34%; HCMV yield ([6]; 0.32 ug/ml): 3.3 log10 PFU/ml; log reduction at 0.32 µg/mL ([6]; Human betaherpesvirus 5, 144 h, 0.32 ug/ml): 1.4; inhibition at 1 µM [7]: 48%; inhibition at 10 µM [7]: 63%; inhibition at 100 µM ([7]; 100 uM): 76%; inhibition at 0.625 µM [8]: 0%; inhibition at 2.5 µM [8]: 62%; inhibition at 5 µM ([8]; 5 uM): 96%; inhibition at 10 µM [8]: 98%; IC50 [8]: 2.1 µM; EC50 [9]: 18.1 µg/mL (≈ 72.6 µM) |

Reference: patent US5153352A, “Process for preparation of intermediates of carbocyclic nucleoside analogs” (priority 1990, dated 1992)
